Measured values as given in BindingDB's records for doi:10.1021/jm00059a006 (Ura Cnrs 1309, 1993).

Assay: Effective concentration that reduces HIV-induced cytopathic effect by 50% was determined by reverse transcriptase (RT) assay.

Row | Compound | EC50 [nM]
1 | CCCCCCCCCCCCCCCCOP(=O)(O)OCC1C=CC(n2cc(C)c(=O)[nH]c2=O)O1 (stereo not given) [Phosphoric acid hexadecyl ester 5-(5-methyl-2,4-dioxo-3,4-dihydro-2H-pyrimidin-1-yl)-2,5-dihydro-furan-2-ylmethyl ester] | 200
2 | CCCCCCCCCCCCCCCC(=O)OCC1C=CC(n2cc(C)c(=O)[nH]c2=O)O1 (stereo not given) [Hexadecanoic acid 5-(5-methyl-2,4-dioxo-3,4-dihydro-2H-pyrimidin-1-yl)-2,5-dihydro-furan-2-ylmethyl ester] | 80
3 | Cc1cn([C@H]2C[C@H](N=[N+]=[N-])[C@@H](CO)O2)c(=O)[nH]c1=O [1-((2R,4S,5S)-4-Azido-5-hydroxymethyl-tetrahydro-furan-2-yl)-5-methyl-1H-pyrimidine-2,4-dione] | 10

Continued by falling EC50, values first:

Row | EC50 [nM] | Compound
4 | 50 | Cc1cn([C@H]2C=C[C@@H](CO)O2)c(=O)[nH]c1=O [2',3'-didehydro-3'-deoxythymidine]
5 | 50 | Cc1cn(C2C=CC(COP(=O)(O)OCC3C=CC(n4cc(C)c(=O)[nH]c4=O)O3)O2)c(=O)[nH]c1=O (stereo not given) [Phosphoric acid bis-[5-(5-methyl-2,4-dioxo-3,4-dihydro-2H-pyrimidin-1-yl)-2,5-dihydro-furan-2-ylmethyl] ester]
